Calls of active or inactive are those of the source. The calls are words filed in the database; no cut-off is given here.
Experiments:
Enterovirus [1] = assay: Antiviral activity against EV71 infected in human RD cells assessed as inhibition of virus-induced cell death at 25 to 100 uM incubated for 48 hrs by MTT assay; format: functional, organism-based; conditions: 71, dose 25-100 µM
Coxsackievirus B3 [2] = assay: Antiviral activity against CVB3 infected in HEp-2 cells assessed as inhibition of virus-induced cell death at 25 uM incubated for 48 hrs by MTT assay relative to control; format: functional; conditions: Enterovirus B
Enterovirus [3] = assay: Antiviral activity against EV71 infected in human RD cells assessed as inhibition of virus-induced cell death at 25 uM incubated for 48 hrs by MTT assay relative to control; format: functional; conditions: Enterovirus, 71, RD
Enterovirus [4] = assay: Antiviral activity against EV71 infected in human RD cells assessed as inhibition of virus-induced cell death at 50 uM incubated for 48 hrs by MTT assay relative to control; format: functional; conditions: Enterovirus, 71, RD
[5] = Cytotoxicity against human HEp-2 cells incubated for 48 hrs by MTT assay; format: toxicity, cell-based
Coxsackievirus B3 [6] = assay: Antiviral activity against CVB3 infected in HEp-2 cells assessed as inhibition of virus-induced cell death at 25 to 100 uM incubated for 48 hrs by MTT assay; format: functional, organism-based; conditions: dose 25-100 µM
Enterovirus [7] = assay: Antiviral activity against EV71 infected in human RD cells assessed as inhibition of virus-induced cell death at 100 uM incubated for 48 hrs by MTT assay relative to control; format: functional, 71; conditions: for inhibition at 100 µM: Enterovirus, 71, RD
[8] = Selectivity index, ratio of CC50 for cytotoxicity against HEp-2 cells to EC50 for antiviral activity against CVB3 infected in HEp-2 cells; format: toxicity, cell-based; conditions: human, read-out: Ratio CC50/EC50
[9] = Selectivity index, ratio of CC50 for cytotoxicity against human RD cells to EC50 for antiviral activity against EV71 infected in human RD cells; format: toxicity, cell-based; conditions: read-out: Ratio CC50/EC50
Coxsackievirus B3 [10] = assay: Antiviral activity against CVB3 infected in HEp-2 cells assessed as inhibition of virus-induced cell death at 50 uM incubated for 48 hrs by MTT assay relative to control; format: functional; conditions: Enterovirus B
Coxsackievirus B3 [11] = assay: Antiviral activity against CVB3 infected in HEp-2 cells assessed as inhibition of virus-induced cell death at 100 uM incubated for 48 hrs by MTT assay relative to control; format: functional; conditions: for inhibition (INH): 48 h, 100 µM; for inhibition at 100 µM: Enterovirus B, HEp-2, 48 h
Coxsackievirus B3 [12] = assay: Antiviral activity against CVB3 infected in HEp-2 cells assessed as protection from virus-induced cytopathogenicity incubated for 48 hrs by MTT assay; format: functional, organism-based; conditions: Enterovirus B, HEp-2, 48 h
Enterovirus [13] = assay: Antiviral activity against EV71 infected in human RD cells assessed as protection from virus-induced cytopathogenicity incubated for 48 hrs by MTT assay; format: functional, organism-based; conditions: Enterovirus, 71, RD
[14] = Cytotoxicity against human RD cells incubated for 48 hrs by MTT assay; format: toxicity, cell-based

Row | Structure (SMILES) | inhibition (Enterovirus [1]) | inhibition at 25 µM (Coxsackievirus B3 [2]) [%] | inhibition at 25 µM (Enterovirus [3]) [%] | inhibition at 50 µM (Enterovirus [4]) [%] | CC50 at 48 h [5] [µM] | antiviral activity call (active/inactive) (Coxsackievirus B3 [6]) | Imax (Enterovirus [7]) [%] | inhibition at 100 µM (Enterovirus [7]) [%] | selectivity ratio [8] | selectivity ratio [9] | inhibition at 50 µM (Coxsackievirus B3 [10]) [%] | inhibition (INH) (Coxsackievirus B3 [11]) [%] | inhibition at 100 µM (Coxsackievirus B3 [11]) [%] | EC50 (Coxsackievirus B3 [12]) [µM] | EC50 (Enterovirus [13]) [µM] | CC50 at 48 h [14] [µM]
1 | COc1cc(CNC(=O)C23CCC(=O)N2c2ccc(Cl)cc2C(=O)N3)ccc1O (stereo not given) | Active | 48.9 | 67.5 | 81.3 | 188 | Active | 97.48 | 97.5 | 10.8 | 5.9 | 30.7 | 92.3 | 87.3 | 17.4 | 27.2 | 160
2 | COc1cc(CNC(=O)C23CCC(=O)N2c2ccccc2C(=O)N3)ccc1O (stereo not given) | – | 42.2 | 64.3 | 85.9 | 238 | Active | 91.33 | 91.3 | 6.6 | – | 56.6 | 82.4 | 82.4 | 35.8 | – | 264
3 | CN1C(=O)c2ccccc2N2C(=O)CCC12C(=O)NCCS(C)(=O)=O (stereo not given) | – | 38.9 | 33 | 56.7 | 205 | Active | – | 62.3 | – | – | 46.6 | – | 55.2 | 64.5 | – | 251
4 | CC(NC(=O)C12CCC(=O)N1c1ccc(Cl)cc1C(=O)N2)c1ccccc1 (stereo not given) | Active | 16 | 44.4 | 53.3 | 239 | Active | – | 71.7 | 2.3 | 9.2 | 31.5 | – | 47.9 | 103 | 29.4 | 270
5 | COC(=O)C(Cc1c[nH]c2ccccc12)NC(=O)C12CCC(=O)N1c1ccccc1C(=O)N2C (stereo not given) | Active | 27.1 | 55.7 | 65.7 | 202 | Active | – | 78 | 3.1 | 9.8 | 40.3 | – | 63.7 | 66.2 | 28.7 | 282
6 | CS(=O)(=O)CCNC(=O)C12CCC(=O)N1c1ccccc1C(=O)N2 (stereo not given) | – | 3.6 | 2 | 3.2 | 176 | – | – | 1.6 | 3.2 | – | 6.5 | – | 11.9 | – | – | 262
7 | COC(=O)C(CCSC)NC(=O)C12CCC(=O)N1c1ccc(Cl)cc1C(=O)N2 (stereo not given) | Active | 29.8 | 50.3 | 58.8 | 214 | Active | – | 58.7 | – | 4.4 | 49.9 | – | 58.8 | 60.1 | 53.4 | 235
8 | CSCCNC(=O)C12CCC(=O)N1c1ccccc1C(=O)N2C (stereo not given) | – | 20.7 | 6.6 | 13.7 | 238 | – | – | 7.9 | – | – | 24.4 | – | 32.1 | – | – | 278
9 | CS(=O)(=O)CCNC(=O)C12CCC(=O)N1c1ccc(Cl)cc1C(=O)N2 (stereo not given) | – | 12.2 | 33.8 | 28 | 202 | – | – | 22.8 | – | – | 24.3 | – | 28.5 | – | – | 243
10 | O=C1NC2(C(=O)NCCc3c[nH]c4ccccc34)CCC(=O)N2c2ccc(Cl)cc21 (stereo not given) | Active | 38.5 | 57.8 | 66.8 | 180 | Active | – | 88.4 | 5.4 | 8.3 | 77.3 | – | 65.7 | 33.5 | 16.8 | 140
11 | CSCCNC(=O)C12CCC(=O)N1c1ccc(Cl)cc1C(=O)N2 (stereo not given) | Active | 20.3 | 34.9 | 28.8 | 315 | – | – | 26.2 | – | 6 | 30.1 | – | 46.7 | – | 44.5 | 269

Source: ChEMBL document CHEMBL6114999, “Natural pyrrolo[1,2-a]quinazolinone derivatives: Design, synthesis, characterization, and bio-evaluation as novel antiviral agents” (Eur J Med Chem, 2025)
